Some test systems named below: HS 578T breast; TK-10 renal; COLO 205 colon; MCF7 breast; OVCAR-3 ovarian; OVCAR-8 ovarian; NCI-H522 lung; SR leukemia; A549 NSCLC; SK-MEL-5 melanoma.
Common to all, as to assay: NCI-60 cell line screen, 48 h

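Dose response: 5 concentrations. Exposure: 48 h. Format: 96-well plates. Endpoint: linear interpolation; highest concentration if not reached. TGI denotes the concentration required for complete inhibition of growth.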 A value given as a limit tells only on which side of the number the result lay.

On to `CCN(CC)CCNc1ccc([N+](=O)[O-])c2nc3ccc(OC)cc3c(N)c12`, for which the TGI in the test with HS 578T breast was 2.89 µM; in the test with TK-10 renal it was 2.93 µM; in the test on COLO 205 colon, 1.65 µM; in the test with MCF7 breast, 1.31 µM; in the test on OVCAR-3 ovarian it was 3.55 µM; in the test with OVCAR-8 ovarian, 3.45 µM. In addition, the TGI with NCI-H522 lung was 0.551 µM; with SR leukemia, 0.972 µM; in the test on A549 NSCLC it was 2.79 µM; in the test on SK-MEL-5 melanoma it was 2.22 µM.
Take `Cc1cc(O)c(C(C)C)cc1C(=S)Nc1ccc(Cl)cc1`: the TGI in the test on HS 578T breast was 28.9 µM; in the test on COLO 205 colon, 31.5 µM; in the test on MCF7 breast, 22.9 µM; with OVCAR-3 ovarian, 27.9 µM; with OVCAR-8 ovarian, 24.2 µM; in the test on NCI-H522 lung it was 17.8 µM. Further, the TGI was 20.4 µM in the test with SR leukemia and 23.8 µM in the test on SK-MEL-5 melanoma.
`O=c1onc(Nc2ccccc2)n1-c1ccccc1`: the TGI in the test with HS 578T breast, with TK-10 renal, in the test on COLO 205 colon, in the test on MCF7 breast, with OVCAR-3 ovarian and with OVCAR-8 ovarian was > 100 µM in each case. Moreover, the TGI in the test on SR leukemia, in the test on A549 NSCLC and with SK-MEL-5 melanoma was > 100 µM each time.
For `CC1=NN2CCC(=O)N=C2S1`, the TGI in the test with HS 578T breast, with TK-10 renal, with COLO 205 colon, with MCF7 breast, in the test on OVCAR-3 ovarian and with OVCAR-8 ovarian was > 100 µM throughout. Further, the TGI in the test with NCI-H522 lung, with SR leukemia, with A549 NSCLC and in the test with SK-MEL-5 melanoma was > 100 µM each time.
Take `Cc1cc(S(=O)(=O)Nc2n[nH]c(Nc3ccccc3)n2)c(SSc2cc(Cl)c(C)cc2S(=O)(=O)Nc2n[nH]c(Nc3ccccc3)n2)cc1Cl`: the TGI with HS 578T breast was > 100 µM; in the test on TK-10 renal, > 100 µM; in the test on COLO 205 colon, > 100 µM; in the test with MCF7 breast, > 10 µM; in the test with OVCAR-3 ovarian, > 100 µM; in the test with OVCAR-8 ovarian, > 100 µM. Further, the TGI with SR leukemia, with A549 NSCLC and with SK-MEL-5 melanoma was > 100 µM in each case.
For the compound `O=C1Nc2ccccc2SC1=C(C(=O)c1ccccc1)C(=O)c1ccccc1`, the TGI in the test on HS 578T breast is > 100 µM; in the test on TK-10 renal, > 100 µM; in the test with COLO 205 colon, > 88 µM; in the test with MCF7 breast it was > 100 µM; with OVCAR-3 ovarian, 41.5 µM; in the test on OVCAR-8 ovarian, > 100 µM. Moreover, the TGI with NCI-H522 lung is 87.1 µM; with SR leukemia, > 100 µM; in the test with A549 NSCLC, > 100 µM; in the test on SK-MEL-5 melanoma it was > 100 µM.
In the case of `Nc1ccc(C(=O)O)cc1`, the TGI in the test with HS 578T breast, with TK-10 renal, in the test on COLO 205 colon, in the test on MCF7 breast, with OVCAR-3 ovarian and with OVCAR-8 ovarian was > 100 µM each time. Besides, the TGI with NCI-H522 lung, with SR leukemia, in the test with A549 NSCLC and in the test with SK-MEL-5 melanoma was > 100 µM in each case.
For the compound `COc1ccc(C2NC(N)=C(C#N)C3=C2C(C)CCC3)cc1OC` (centres undefined), the TGI in the test on HS 578T breast, with TK-10 renal, with COLO 205 colon, in the test on MCF7 breast, in the test with OVCAR-3 ovarian and in the test on OVCAR-8 ovarian was > 100 µM in each case. Moreover, the TGI is 23 µM with SR leukemia and > 100 µM with SK-MEL-5 melanoma.
With `Cc1ccc(S(=O)(=O)NC(=O)NC(CC(=O)O)C(=O)O)cc1` (centres undefined), the TGI with HS 578T breast, in the test on TK-10 renal, with COLO 205 colon, in the test on MCF7 breast, with OVCAR-8 ovarian and in the test on NCI-H522 lung was > 100 µM in each case. Further, the TGI with SR leukemia, with A549 NSCLC and in the test with SK-MEL-5 melanoma was > 100 µM each time.
`CC(C)=C=CP(=O)(O)c1ccccc1`: the TGI with HS 578T breast, in the test with TK-10 renal, in the test with COLO 205 colon, in the test on MCF7 breast, in the test on OVCAR-3 ovarian and with OVCAR-8 ovarian was > 100 µM throughout. The TGI in the test with NCI-H522 lung, with SR leukemia, in the test with A549 NSCLC and in the test with SK-MEL-5 melanoma was > 100 µM throughout.
On to `Cc1nccn1S(=O)(=O)c1ccc(Cl)cc1`, for which the TGI with HS 578T breast is > 100 µM; in the test with TK-10 renal it was > 100 µM; with COLO 205 colon, 40.2 µM; in the test with MCF7 breast, > 100 µM; in the test on OVCAR-3 ovarian, > 100 µM; in the test on OVCAR-8 ovarian it was > 100 µM. Also, the TGI with NCI-H522 lung, in the test on SR leukemia, in the test with A549 NSCLC and in the test with SK-MEL-5 melanoma was > 100 µM throughout.
Turning to `CCOC(=O)C1=C(C)N(Cc2ccccc2)C2(O)C(OC)CC(=O)C3C(=O)N(c4ccccc4)C(=O)C132` (centres undefined), the TGI in the test on HS 578T breast was > 100 µM; with TK-10 renal, 53 µM; in the test with COLO 205 colon it was > 100 µM; in the test on MCF7 breast, 34.5 µM; in the test with OVCAR-3 ovarian, > 100 µM; in the test with OVCAR-8 ovarian, 31.9 µM. In addition, the TGI in the test with NCI-H522 lung is 26.3 µM; with SR leukemia it was 86.8 µM; in the test with A549 NSCLC it was > 100 µM; in the test with SK-MEL-5 melanoma, 37.1 µM.
Regarding `CC(=O)c1c(O)cc(O)c(-c2c(C)cc(O)c3c2C(=O)c2cccc(O)c2C3=O)c1O`, the TGI in the test with HS 578T breast came to 34.6 µM; in the test with TK-10 renal, 35.6 µM; in the test with MCF7 breast it was 29.8 µM; in the test on OVCAR-3 ovarian it was 56.2 µM; in the test with OVCAR-8 ovarian it was 49.5 µM; in the test on NCI-H522 lung, 24.7 µM. For the same compound, the TGI stood at 53.8 µM in the test with SR leukemia and 34.2 µM in the test on A549 NSCLC.
Turning to `CCOC(=O)C1CCCN1C(=O)c1ccccc1Cl` (centres undefined), the TGI in the test on HS 578T breast, in the test with TK-10 renal, with MCF7 breast, with OVCAR-3 ovarian, with OVCAR-8 ovarian and in the test with NCI-H522 lung was > 100 µM throughout. In addition, the TGI in the test with SR leukemia, in the test on A549 NSCLC and in the test on SK-MEL-5 melanoma was > 100 µM throughout.
For the compound `COc1cccc(N(CN2C(=O)CCC2OC)C(C)=O)c1` (centres undefined), the TGI in the test with HS 578T breast, with TK-10 renal, in the test with COLO 205 colon, with MCF7 breast, in the test on OVCAR-3 ovarian and with OVCAR-8 ovarian was > 100 µM in each case. Besides, the TGI in the test with SR leukemia, with A549 NSCLC and in the test on SK-MEL-5 melanoma was > 100 µM each time.
